Assay results as given in patent US20230301885A1, “NOVEL USE” (DSM IP ASSETS B.V., priority 2020, published 2023).

Key:
S. epidermidis [1] = assay: Microbiome balance model, S. epidermidis/S. aureus co-culture: S. epidermidis; assay type: cell-based, Staphylococcus epidermidis; settings: co-culture with S. aureus
Description: (§1) The term ‘share’ as used herein refers to the share of each (individual) microbe, based on the total number of microbes in the respective group of microbes in % (i.e. the at least two, preferably all dry or sebaceous skin microbes as defined herein, respectively S. epidermidis and ), either before or after inoculation (as indicated). The share is calculated using the colony count of the respective (individual) microbe divided by the sum of the colony counts of all microbes of the respective microbiota * 100%.
(§2) 5 mL of TSB (Tryptic Say Broth) to which no (Ref.1) or 500 µL of 2 wt.-% of 1,3-propanediol (1,3-PDO) in PBS (Phosphate-buffered saline) have been added. Then this solutions have been inoculated by 500 µL of the respective calibrated mixture of the microbes as outlined below. Directly after inoculation and/or after 4 hours of incubation at 37° C., 100 µL have been taken and plated on an Agar gel petri dish. The microbes have then been counted based on the colony specific morphology and/or size.
(§3) All shares have been rounded.

S. aureus = assay: Microbiome balance model, S. epidermidis/S. aureus co-culture: S. aureus; assay type: cell-based, Staphylococcus aureus; settings: co-culture with S. epidermidis
Description: as §1, §2, §3

C. acnes = assay: Microbiome balance model, sebaceous skin mixture: C. acnes; assay type: cell-based, Cutibacterium acnes; settings: 4 h at 37° C.
Description: (§4) Thus, in particular the term ‘by not unproportionally affecting the growth of anyone thereof’ refers to a balancing of at least two, preferably all dry skin or sebaceous skin microbes as defined herein in the mutual presence thereof, wherein only small changes in the difference in the (individual) shares of the microbes compared to the corresponding shares of the control are observed. Preferably, the small changes in the (individual) share (after 4 h of incubation at 37° C.) is less than ±15%, in particular less than ±10%, most in particular less than ±7.5%, compared to the control. Said change in the share is calculated as: share of the respective microbe within the group of at least two, preferably all microbes of dry or sebaceous skin in the presence of 1,3-PDO [%] minus share of the same microbe within the same group of microbes in the absence of 1,3-PDO [%], both after 4 h of incubation at 37° C. as illustrated in the example.
(§5) The ‘not unproportionally affected growth’ can also be assessed by determining an overall impact value, by • (1) assessing the impact of the ingredient on the individual microbe (i) and assigning an individual impact value x′(i) to said microbe as outlined below: • [formula] • If x(i) is • a) ≤ 0.1 then an integer x′(i) of 1 is assigned (no impact) • b) >0.1 ≤ 0.5then an integer x′(i) of 2 is assigned (slight impact) • c) > 0.5 then an integer x′(i) of 3 is assigned (significant impact), followed by • (2) assessing the overall effect of the ingredient on the respective microbiome by calculating the overall impact value y with formula (II) • [formula] • with n being the total number of microbes in the respective microbiota, wherein a good balancing is characterized by an overall impact value y of less than 2, preferably less than 1.75, most preferably less than 1.7.
as §2, §3

S. epidermidis [2] = assay: Microbiome balance model, sebaceous skin mixture: S. epidermidis; assay type: cell-based, Staphylococcus epidermidis; settings: 4 h at 37° C.
Description: as §4, §5, §2, §3

S. hominis = assay: Microbiome balance model, sebaceous skin mixture: S. hominis; assay type: cell-based, Staphylococcus hominis; settings: 4 h at 37° C.
Description: as §4, §5, §2, §3

S. capitis = assay: Microbiome balance model, sebaceous skin mixture: S. capitis; assay type: cell-based, Staphylococcus capitis; settings: 4 h at 37° C.
Description: as §4, §5, §2, §3

S. mitis = assay: Microbiome balance model, sebaceous skin mixture: S. mitis; assay type: cell-based, Streptococcus mitis; settings: 4 h at 37° C.
Description: as §4, §5, §2, §3

C.simulans = assay: Microbiome balance model, sebaceous skin mixture: C. simulans; assay type: cell-based, Corynebacterium simulans; settings: 4 h at 37° C.
Description: as §4, §5, §2, §3

M. globosa = assay: Microbiome balance model, sebaceous skin mixture: M. globosa; assay type: cell-based, Malassezia globosa; settings: 4 h at 37° C.
Description: as §4, §5, §2, §3

[3] = test system: microbes of sebaceous skin; assay: Microbiome balance model, sebaceous skin mixture: total of all microbes; assay type: cell-based; settings: 4 h at 37° C.
Description: Preferably, the difference in total number of said at least two, preferably all microbes, compared to the respective total number in the absence of 1,3-propanediol (i.e. the control), after 4 h of incubation at 37° C., is within a range of ±50%, preferably ±40%, more preferably ±15%, most preferably ±10%.
as §5, §2, §3

[4] = after 4 hours of incubation at 37° C.
[5] = directly after inoculation, 500 µL of 2 wt.-% in PBS in 5 mL TSB

CCCC(O)CO (stereo not shown) [pentylene glycol, 1,2-pentanediol, reference compound]
CSE4h counts of colony of S. epidermidis (S. epidermidis [1]; [4]): 3200 CFU/ml | CSE4h share of S. epidermidis (S. epidermidis [1]; [4]): 55% | CSE0 share of S. epidermidis (S. epidermidis [1]; directly after inoculation): 80% | CSE0 counts of colony of S. epidermidis (S. epidermidis [1]; [5]): 1100 CFU/ml | share of S. aureus, effect in words (S. aureus; 4 hours of incubation): not reduced | CSA4h counts of colony of S. aureus (S. aureus; [4]): 3900 CFU/ml | CSA4h share of S. aureus (S. aureus; [4]): 45% | CSA0 share of S. aureus (S. aureus; directly after inoculation): 20% | CSA0 counts of colony of S. aureus (S. aureus; [5]): 280 CFU/ml | C. acnes change in share vs control (C. acnes): -19.5%^1 | C. acnes counts of colony (C. acnes): 2000 CFU/ml | C. acnes share (C. acnes): 20% | C. acnes valuation, impact value x(i)′ (C. acnes): 3^3 (> 0.5 then an integer x′(i) of 3 is assigned (significant impact)) | S. epidermidis change in share vs control (S. epidermidis [2]): +17%^1 | S. epidermidis counts of colony (S. epidermidis [2]): 3300 CFU/ml | S. epidermidis share (S. epidermidis [2]): 32% | S. epidermidis valuation, impact value x(i)′ (S. epidermidis [2]): 3^3 (> 0.5 then an integer x′(i) of 3 is assigned (significant impact)) | S. hominis counts of colony (S. hominis): 2100 CFU/ml | S. hominis share (S. hominis): 21% | S. hominis valuation, impact value x(i)′ (S. hominis): 2^3 (>0.1 ≤ 0.5then an integer x′(i) of 2 is assigned (slight impact)) | S. capitis counts of colony (S. capitis): 1100 CFU/ml | S. capitis share (S. capitis): 11% | S. capitis valuation, impact value x(i)′ (S. capitis): 3^3 (> 0.5 then an integer x′(i) of 3 is assigned (significant impact)) | S. mitis change in share vs control (S. mitis): +0.5%^1 | S. mitis counts of colony (S. mitis): 380 CFU/ml | S. mitis share (S. mitis): 4% | S. mitis valuation, impact value x(i)′ (S. mitis): 2^3 (>0.1 ≤ 0.5then an integer x′(i) of 2 is assigned (slight impact)) | C.simulans change in share vs control (C.simulans): -3%^1 | C.simulans counts of colony (C.simulans): 450 CFU/ml | C.simulans share (C.simulans): 4% | C.simulans valuation, impact value x(i)′ (C.simulans): 2^3 (>0.1 ≤ 0.5then an integer x′(i) of 2 is assigned (slight impact)) | M. globosa change in share vs control (M. globosa): +1%^1 | M. globosa counts of colony (M. globosa): 830 CFU/ml | M. globosa share (M. globosa): 8% | M. globosa valuation, impact value x(i)′ (M. globosa): 2^3 (>0.1 ≤ 0.5then an integer x′(i) of 2 is assigned (slight impact)) | Change of total CFU/ml vs control [3]: +2.60%^2 | Total counts of colony [3]: 10160 CFU/ml | Total share [3]: 100% | overall impact value y [3]: 2.4^4 | share of the microbes of sebaceous skin, effect in words ([3]; in contrast to 1,3-propanediol): alter the share of the microbes of sebaceous skin to a greater extend
